Test results reported in patent US20230123334A1, “AMINO LIPID COMPOUND, PREPARATION METHOD THEREFOR, AND APPLICATION THEREOF” (SHENZHEN SHENXIN BIOTECHNOLOGY CO., LTD., priority 2020, published 2023).

Tests used:
HEK293 cells [1] = assay: Preliminary screening as mRNA vectors, EGFP mRNA transfection of HEK293 cells; assay type: cell-based; settings: HEK293 cells, 96-well plates, EGFP mRNA 50 ng per well; percentage of GFP fluorescent cells relative to total number of cells (Hoechst)
Summary of the method: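 Each well of HEK293 cells received 50 ng of EGFP mRNA. Efficiency was expressed as percent GFP-expressing cells over Hoechst-defined total cell number.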

HEK293 cells [2] = assay: Preliminary screening as DNA vectors, GFP transfection of HEK293 cells; assay type: cell-based; settings: HEK293 cells; lipid/DOPE liposome with 75 ng plasmid DNA (psin-EGFP-IRES-Puro); number of cells expressing GFP divided by total number of nuclei (Hoechst)
Summary of the method: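 Lipid + DOPE liposomes (NaOAc, pH 5.6) complexed w/ 75 ng psin-EGFP-IRES-Puro, 30 min RT; added to 3-5×10^4 HEK293/well, 37° C. Hoechst 0.2 μg/mL at 20-24 h, imaged after further 20-24 h. Efficiency = GFP+ cells / total nuclei.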

## CCCCCCCCCCCNc1nc(NCCCCCCCCC)nc(NCCCN2CCOCC2)n1 [Compound N9N11D8]
HEK293 cells [1]
  Absolute mRNA transfection efficiency in HEK293 cells: 0.4%
HEK293 cells [2]
  Absolute DNA transfection efficiency in HEK293 cells: 0.0%

## CCCCCCCCCCCCCNc1nc(NCCCCCCC)nc(NCCN(CC)CC)n1 [Compound N7N13D7]
HEK293 cells [1]
  Absolute mRNA transfection efficiency in HEK293 cells: 0.0%
HEK293 cells [2]
  Absolute DNA transfection efficiency in HEK293 cells: 0.1%

## CCCCCCCCCCCCCCCCSc1nc(NCCN2CCN(C)CC2)nc(SCCCCCCCCCCCCCCCC)n1 [Compound S16S16D5]
HEK293 cells [1]
  Absolute mRNA transfection efficiency in HEK293 cells: 0.7%
HEK293 cells [2]
  Absolute DNA transfection efficiency in HEK293 cells: 0.0%

## CCCCCCCCCCCCCCCCNc1nc(NCCCCCCCCCCCCCCCC)nc(NCCCN(C)C)n1 [Compound N16N16D6]
HEK293 cells [1]
  Absolute mRNA transfection efficiency in HEK293 cells: 0.0%
HEK293 cells [2]
  Absolute DNA transfection efficiency in HEK293 cells: 0.9%

## CCCCCCCCCCCCCNc1nc(NCCCCCCCCCCCCC)nc(NCCN2CCCCC2)n1 [Compound N13N13D4]
HEK293 cells [1]
  Absolute mRNA transfection efficiency in HEK293 cells: 3.3%
HEK293 cells [2]
  Absolute DNA transfection efficiency in HEK293 cells: 1.5%

## CCCCCCCNc1nc(NCCCCCC)nc(NCCCN(C)C)n1 [Compound N6N7D6]
HEK293 cells [1]
  Absolute mRNA transfection efficiency in HEK293 cells: 0.1%
HEK293 cells [2]
  Absolute DNA transfection efficiency in HEK293 cells: 0.0%

## CCCCCCCCCCCCCNc1nc(NCCCCCCCCC)nc(NCCN2CCCC2)n1 [Compound N9N13D3]
HEK293 cells [1]
  Absolute mRNA transfection efficiency in HEK293 cells: 4.6%
HEK293 cells [2]
  Absolute DNA transfection efficiency in HEK293 cells: 1.0%

## CCCCCCCCCCCCCCCSc1nc(NCCCN(C)C)nc(SCCCCCCCC)n1 [Compound S8S15D6]
HEK293 cells [1]
  Absolute mRNA transfection efficiency in HEK293 cells: 45.0%
HEK293 cells [2]
  Absolute DNA transfection efficiency in HEK293 cells: 24.5%

## CCCCCCCCCCCCNc1nc(NCCCCCCCCCCC)nc(NCCCN2CCOCC2)n1 [Compound N11N12D8]
HEK293 cells [1]
  Absolute mRNA transfection efficiency in HEK293 cells: 2.8%
HEK293 cells [2]
  Absolute DNA transfection efficiency in HEK293 cells: 0.0%

## CCCCCCCCCCCCSc1nc(NCCCN2CCN(C)CC2)nc(SCCCCCCCCCCC)n1 [Compound S11S12D9]
HEK293 cells [1]
  Absolute mRNA transfection efficiency in HEK293 cells: 4.2%
HEK293 cells [2]
  Absolute DNA transfection efficiency in HEK293 cells: 2.4%

## CCCCCCCCCCCCCNc1nc(NCCN2CCCCC2)nc(N(CCCCCCCCCCCC)CCCCCCCCCCCC)n1 [N13^2N12D4]
HEK293 cells [1]
  Absolute mRNA transfection efficiency in HEK293 cells: 4.5%
HEK293 cells [2]
  Absolute DNA transfection efficiency in HEK293 cells: 0.8%

## CCCCCCCCCCCCCCCCCCSc1nc(NCCCN(C)C)nc(SCCCCCCCCCCCC)n1 [Compound S12S18D6]
HEK293 cells [1]
  Absolute mRNA transfection efficiency in HEK293 cells: 0.1%
HEK293 cells [2]
  Absolute DNA transfection efficiency in HEK293 cells: 1.0%

## CCCCCCCCCCCNc1nc(NCCCCCCC)nc(NCCN(CC)CC)n1 [Compound N7N11D7]
HEK293 cells [1]
  Absolute mRNA transfection efficiency in HEK293 cells: 0.0%
HEK293 cells [2]
  Absolute DNA transfection efficiency in HEK293 cells: 0.0%

## CCCCCCCCNc1nc(NCCCCCCCC)nc(NCCN(CC)CC)n1 [Compound N8N8D7]
HEK293 cells [1]
  Absolute mRNA transfection efficiency in HEK293 cells: 0.0%
HEK293 cells [2]
  Absolute DNA transfection efficiency in HEK293 cells: 0.0%

## CCCCCCCCCCCCCCCCSc1nc(NCCN2CCCC2)nc(SCCCCCCCCCCCC)n1 [Compound S12S16D3]
HEK293 cells [1]
  Absolute mRNA transfection efficiency in HEK293 cells: 0.1%
HEK293 cells [2]
  Absolute DNA transfection efficiency in HEK293 cells: 2.0%

## CCCCCCCNc1nc(NCCCCCCC)nc(NCCN2CCOCC2)n1 [Compound N7N7D2]
HEK293 cells [1]
  Absolute mRNA transfection efficiency in HEK293 cells: 0.0%
HEK293 cells [2]
  Absolute DNA transfection efficiency in HEK293 cells: 0.0%

## CCCCCCCCCCCCCCCCNc1nc(NCCCCCCCCC)nc(NCCCN(C)C)n1 [Compound N9N16D6]
HEK293 cells [1]
  Absolute mRNA transfection efficiency in HEK293 cells: 6.2%
HEK293 cells [2]
  Absolute DNA transfection efficiency in HEK293 cells: 2.2%

## CCCCCCCCCCCCSc1nc(NCC2CCN(C)CC2)nc(SCCCCCCCCCC)n1 [Compound S10S12D10]
HEK293 cells [1]
  Absolute mRNA transfection efficiency in HEK293 cells: 91.0%
HEK293 cells [2]
  Absolute DNA transfection efficiency in HEK293 cells: 13.7%

## CCCCCCCCCCCCCCSc1nc(NCCN(C)C)nc(SCCCCCCCCCCCC)n1 [Compound S12S14D1]
HEK293 cells [1]
  Absolute mRNA transfection efficiency in HEK293 cells: 0.0%
HEK293 cells [2]
  Absolute DNA transfection efficiency in HEK293 cells: 0.6%

## CCCCCCCCCCCNc1nc(NCCCCCC)nc(NCCN2CCCC2)n1 [Compound N6N11D3]
HEK293 cells [1]
  Absolute mRNA transfection efficiency in HEK293 cells: 0.9%
HEK293 cells [2]
  Absolute DNA transfection efficiency in HEK293 cells: 0.3%

## CCCCCCCCCCCCCCCSc1nc(NCCCN(C)C)nc(SCCCCCCCCCCCCCC)n1 [Compound S14S15D6]
HEK293 cells [1]
  Absolute mRNA transfection efficiency in HEK293 cells: 0.1%
HEK293 cells [2]
  Absolute DNA transfection efficiency in HEK293 cells: 0.2%

## CCCCCCCCCCCNc1nc(NCCCCCCC)nc(NCCN(C)C)n1 [Compound N7N11D1]
HEK293 cells [1]
  Absolute mRNA transfection efficiency in HEK293 cells: 0.0%
HEK293 cells [2]
  Absolute DNA transfection efficiency in HEK293 cells: 1.3%

## CCCCCCCCCCCCCNc1nc(NCCCCCCCCCCCC)nc(NCCN2CCCC2)n1 [Compound N12N13D3]
HEK293 cells [1]
  Absolute mRNA transfection efficiency in HEK293 cells: 3.1%
HEK293 cells [2]
  Absolute DNA transfection efficiency in HEK293 cells: 1.7%

## CCCCCCCNc1nc(NCCCCCCC)nc(NCC2CCN(C)CC2)n1 [Compound N7N7D10]
HEK293 cells [1]
  Absolute mRNA transfection efficiency in HEK293 cells: 0.0%
HEK293 cells [2]
  Absolute DNA transfection efficiency in HEK293 cells: 0.1%
